Experimental data as given in patent US20240199598A1 (MITOIMMUNE THERAPEUTICS INC., priority 2021, published 2024).
Read-outs that look alike come from different tables or passages of the source.

Legend:
[1] = Oral administration pharmacokinetic test using mice
[2] = Physicochemical stability test of free form and 5 salts (60° C., 40° C./75% humidity, light); conditions: for Final purity: HPLC
Description: In the case of a light stability test, the vial was stored in a light stability test chamber while being not closed with a lid, and exposed to a total illuminance of 1.2 million lux-hr. A vial light-shielded with aluminum foil was used as an experimental control (Dark control). For stability assessment, state assessment by visual observation, purity assessment using HPLC, and crystalline form assessment using XRPD were conducted, and results thereof are shown in Table 7. […] In FIGS. 19 to 30, “Light” represents light irradiation condition results.

[3] = Solubility of compound of Chemical Formula 1 in various solvents; type: physicochemical
Text: Very low solubility in various solvents adversely affects pharmaceutical development that requires the production of a finished product in a completely dissolved state.

pKa, UV-metric method = type: physicochemical
Text: As shown in the following Table 2, each combination of counter ions and solvents were given a batch number.

[4] = Maintenance of Crystalline form III under melting-cooling, water sorption and desorption, compressive behavior and grinding tests (XRPD); type: physicochemical; conditions: melting-cooling method
Description: 10 mg of a sample was placed in a mesh stainless steel basket using SMS DVS Advantage 1. The entire experimental cycle consists of two scans (water sorption and desorption) at a constant temperature (25° C.) and 10% RH intervals in the range of 40 to 90% (60 to 360 minutes for each humidity level).
XRPD result, no novel crystalline form was produced.
As an XRPD result, no novel crystalline form was produced.
As a result of the XRPD test, no novel crystalline form was produced.
As a result of the XRPD test, no novel pattern was produced.

[5] = Stability test of Crystalline form III of sulfate (light, dark, 60° C., 40° C./75% RH); type: physicochemical
Description: The chemical and physical stability of Crystalline form III were studied under conditions of light, light-shielding, 60° C. and 40° C./75% RH for 1 month. […] In the light stability test, the crystalline form was stored in a light stability test chamber without a lid and thus exposed to a total illuminance of 1.2 million lux-hr, and a sample vial completely covered with an aluminum foil was regarded as a light-shielded control (Dark control). Appearance by visual observation for 2 weeks, 1 month, 2 months and 3 months was recorded, and purity assessment and XPRD data collection for residual solid contents were performed.

[6] = 1.2 million lux-hr, listed as Free form of compound 1
[7] = 40° C./75% RH, 1 w, listed as Free form of compound 1
[8] = 60° C., 1 w, listed as Free form of compound 1
[9] = Dark control, listed as Free form of compound 1

SMILES: O=S1(=O)CCN(Cc2cc(NC3CCOCC3)c3[nH]c(-c4ccccc4)cc3c2)CC1 [compound of Chemical Formula 1, 5-[(1,1-dioxido-4-thiomorpholinyl)methyl]-2-phenyl-N-(tetrahydro-2H-pyran-4-yl)-1H-indol-7-amine]
- Cmax ([1]; mice, oral, 10 mg/kg, listed as Free): 1015.2 ng/mL
- t½ ([1]; mice, oral, 10 mg/kg, listed as free form): 72 min
- AUClast ([1]; mice, oral, 10 mg/kg, listed as free form of the compound of Chemical Formula 1, 10 mg/kg): 3603.9 ng·h/mL
- Pharmacokinetic test, t½ ([1]; mice, oral, summary Table 9, listed as Free form of compound of Chemical Formula 1): 60 min
- Tmax ([1]; mouse, in vivo, po, 10 mg/kg): 30 min
- Appearance ([2]; 1.2 million lux-hr (light stability), listed as Free form of compound 1): White powder
- Final purity [2, 6]: 99.89%
- Assay [2, 6]: 107.41%
- Purity change [2, 6]: +0.13%
- XRPD patterns [2, 6]: Pattern A
- Final purity [2, 7]: 99.95%
- Assay [2, 7]: 110.59%
- Purity change [2, 7]: +0.19%
- XRPD patterns [2, 7]: Pattern A
- Chemical stability (purity change %/1 w), 40° C./75% RH ([2]; 40° C./75% RH, 1 w, summary Table 9, listed as Free form of compound of Chemical Formula 1): 0.19%
- Final purity [2, 8]: 99.94%
- Assay [2, 8]: 105.89%
- Purity change [2, 8]: +0.18%
- XRPD patterns [2, 8]: Pattern A
- Chemical stability (purity change %/1 w), 60° C. ([2]; 60° C., 1 w, summary Table 9, listed as Free form of compound of Chemical Formula 1): 0.18%
- Appearance ([2]; Dark control (light-shielded vial)): White powder
- Final purity [2, 9]: 99.94%
- Assay [2, 9]: 109.40%
- Purity change [2, 9]: +0.18%
- XRPD patterns [2, 9]: Pattern A
- Chemical stability (purity change %/1 w), Light stability ([2]; light stability, summary Table 9, listed as Free form of compound of Chemical Formula 1): 0.13%
- solubility ([3]; Heptane, 25° C.): <LOQ
- solubility ([3]; Heptane, 50° C.): <LOQ
- solubility ([3]; Water, 25° C., read-out: Solubility): 1 µg/mL
- solubility ([3]; Water, 50° C., read-out: Solubility): 46 µg/mL
- solubility ([3]; aqueous with cosolvent or surfactant or cyclodextrin, Acetic acid-water (1:1), 25° C., read-out: Solubility): 52800 µg/mL
- solubility ([3]; aqueous with cosolvent or surfactant or cyclodextrin, Acetic acid-water (1:1), 50° C., read-out: Solubility): 75600 µg/mL
- solubility ([3]; aqueous with cosolvent or surfactant or cyclodextrin, Acetone-water (1:2), 25° C., read-out: Solubility): 80 µg/mL
- solubility ([3]; aqueous with cosolvent or surfactant or cyclodextrin, Acetone-water (1:2), 50° C., read-out: Solubility): 160 µg/mL
- solubility ([3]; aqueous with cosolvent or surfactant or cyclodextrin, MeOH/water = 1:1 (v/v), 25° C., read-out: Solubility): 30 µg/mL
- solubility ([3]; aqueous with cosolvent or surfactant or cyclodextrin, MeOH/water = 1:1 (v/v), 50° C., read-out: Solubility): 80 µg/mL
- solubility ([3]; organic solvent or mixture, 1-Butanol, 25° C., read-out: Solubility): 650 µg/mL
- solubility ([3]; organic solvent or mixture, 1-Butanol, 50° C., read-out: Solubility): 1000 µg/mL
- solubility ([3]; organic solvent or mixture, 2-Methyltetrahydrofuran (2-MeTHF), 25° C., read-out: Solubility): 2780 µg/mL
- solubility ([3]; organic solvent or mixture, 2-Methyltetrahydrofuran (2-MeTHF), 50° C., read-out: Solubility): 3410 µg/mL
- solubility ([3]; organic solvent or mixture, Acetone, 25° C., read-out: Solubility): 5290 µg/mL
- solubility ([3]; organic solvent or mixture, Acetone, 50° C., read-out: Solubility): 17500 µg/mL
- solubility ([3]; organic solvent or mixture, Acetonitrile (ACN), 25° C., read-out: Solubility): 3090 µg/mL
- solubility ([3]; organic solvent or mixture, Acetonitrile (ACN), 50° C., read-out: Solubility): 4040 µg/mL
- solubility ([3]; organic solvent or mixture, Chloroform (CHCl3), 25° C., read-out: Solubility): 4700 µg/mL
- solubility ([3]; organic solvent or mixture, Chloroform (CHCl3), 50° C., read-out: Solubility): 4620 µg/mL
- solubility ([3]; organic solvent or mixture, Dimethyl sulfoxide (DMSO), 25° C., read-out: Solubility): 43400 µg/mL
- solubility ([3]; organic solvent or mixture, Dimethyl sulfoxide (DMSO), 50° C., read-out: Solubility): 238000 µg/mL
- solubility ([3]; organic solvent or mixture, Ethanol (EtOH), 25° C., read-out: Solubility): 1410 µg/mL
- solubility ([3]; organic solvent or mixture, Ethanol (EtOH), 50° C., read-out: Solubility): 1080 µg/mL
- solubility ([3]; organic solvent or mixture, Ethyl acetate (EtOAc), 25° C., read-out: Solubility): 1360 µg/mL
- solubility ([3]; organic solvent or mixture, Ethyl acetate (EtOAc), 50° C., read-out: Solubility): 1860 µg/mL
- solubility ([3]; organic solvent or mixture, Isopropanol (IPA), 25° C., read-out: Solubility): 320 µg/mL
- solubility ([3]; organic solvent or mixture, Isopropanol (IPA), 50° C., read-out: Solubility): 540 µg/mL
- solubility ([3]; organic solvent or mixture, Isopropyl acetate (iPrOAc), 25° C., read-out: Solubility): 710 µg/mL
- solubility ([3]; organic solvent or mixture, Isopropyl acetate (iPrOAc), 50° C., read-out: Solubility): 910 µg/mL
- solubility ([3]; organic solvent or mixture, Methanol (MeOH), 25° C., read-out: Solubility): 590 µg/mL
- solubility ([3]; organic solvent or mixture, Methanol (MeOH), 50° C., read-out: Solubility): 1150 µg/mL
- solubility ([3]; organic solvent or mixture, Methyl ethyl ketone (MEK), 25° C., read-out: Solubility): 6080 µg/mL
- solubility ([3]; organic solvent or mixture, Methyl ethyl ketone (MEK), 50° C., read-out: Solubility): 8120 µg/mL
- solubility ([3]; organic solvent or mixture, Methyl isobutyl ketone (MIBK), 25° C., read-out: Solubility): 2100 µg/mL
- solubility ([3]; organic solvent or mixture, Methyl isobutyl ketone (MIBK), 50° C., read-out: Solubility): 2820 µg/mL
- solubility ([3]; organic solvent or mixture, Methyl tert-butyl ether (MTBE), 25° C., read-out: Solubility): 60 µg/mL
- solubility ([3]; organic solvent or mixture, Methyl tert-butyl ether (MTBE), 50° C., read-out: Solubility): 70 µg/mL
- solubility ([3]; organic solvent or mixture, N,N-dimethylformamide (DMF), 50° C., read-out: Solubility): 333000 µg/mL
- solubility ([3]; organic solvent or mixture, N-methyl pyrrolidone (NMP), 25° C., read-out: Solubility): 160000 µg/mL
- solubility ([3]; organic solvent or mixture, N-methyl pyrrolidone (NMP), 50° C., read-out: Solubility): 192000 µg/mL
- solubility ([3]; organic solvent or mixture, Tetrahydrofuran (THF), 25° C., read-out: Solubility): 17400 µg/mL
- solubility ([3]; organic solvent or mixture, Tetrahydrofuran (THF), 50° C., read-out: Solubility): 16300 µg/mL
- solubility ([3]; organic solvent or mixture, Toluene, 25° C., read-out: Solubility): 20 µg/mL
- solubility ([3]; organic solvent or mixture, Toluene, 50° C., read-out: Solubility): 20 µg/mL
- pKa (pKa, UV-metric method): 4.5

SMILES: O=S1(=O)CCN(Cc2cc(NC3CCOCC3)c3[nH]c(-c4ccccc4)cc3c2)CC1 [Crystalline form III]
- Stability of the crystalline form (in words) [4]: stable under each test condition
- Purity decrease ([5]; 40° C. for 1 month): 0.67%
- Appearance ([5]; 40° C./75% RH, 1 M): White powder
- Assay ([5]; 40° C./75% RH, 1 M): 102.84%
- Final purity ([5]; 40° C./75% RH, 1 M): 98.71%
- Purity change ([5]; 40° C./75% RH, 1 M): −0.67%
- XRPD patterns ([5]; 40° C./75% RH, 1 M): Pattern III
- Appearance ([5]; 40° C./75% RH, 2 w): White powder
- Assay ([5]; 40° C./75% RH, 2 w): 99.42%
- Final purity ([5]; 40° C./75% RH, 2 w): 98.77%
- Purity change ([5]; 40° C./75% RH, 2 w): −0.61%
- XRPD patterns ([5]; 40° C./75% RH, 2 w): Pattern III
- Stability (in words) ([5]; 60° C. for 1 month): stable
- Appearance ([5]; 60° C., 1 M): White powder
- Assay ([5]; 60° C., 1 M): 106.79%
- Final purity ([5]; 60° C., 1 M): 99.25%
- Purity change ([5]; 60° C., 1 M): −0.13%
- XRPD patterns ([5]; 60° C., 1 M): Pattern III
- Appearance ([5]; 60° C., 2 w): White powder
- Assay ([5]; 60° C., 2 w): 101.08%
- Final purity ([5]; 60° C., 2 w): 99.24%
- Purity change ([5]; 60° C., 2 w): −0.14%
- XRPD patterns ([5]; 60° C., 2 w): Pattern III
- Appearance ([5]; Dark (light-shielded control)): White powder
- Assay ([5]; Dark (light-shielded control)): 103.17%
- Final purity ([5]; Dark (light-shielded control)): 99.33%
- Purity change ([5]; Dark (light-shielded control)): −0.05%
- XRPD patterns ([5]; Dark (light-shielded control)): Pattern III
- Appearance ([5]; Initial): White powder
- Final purity ([5]; Initial): 99.38%
- XRPD patterns ([5]; Initial): Pattern III
- Appearance ([5]; Light (1.2 million lux-hr)): Taupe powder
- Assay ([5]; Light (1.2 million lux-hr)): 101.77%
- Final purity ([5]; Light (1.2 million lux-hr)): 99.38%
- Purity change ([5]; Light (1.2 million lux-hr)): −0.00%
- XRPD patterns ([5]; Light (1.2 million lux-hr)): Pattern III
- Stability (in words) ([5]; light and light-shielding conditions): stable
